Experimental data reported in PubChem BioAssay (NCI).
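GI50 is the concentration that inhibits growth by half. At the TGI there is no net growth.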

Columns and labels:
Experiment in all cases: NCI tumour cell line growth inhibition, 384-well format
SNB-19 CNS = test system: SNB-19 CNS
MDA-MB-231 breast = test system: MDA-MB-231 breast
DU-145 prostate = test system: DU-145 prostate
A498 renal = test system: A498 renal
SF-268 CNS = test system: SF-268 CNS
MOLT-4 leukemia = test system: MOLT-4 leukemia
NCI-H226 lung = test system: NCI-H226 lung
A549 NSCLC = test system: A549 NSCLC
TK-10 renal = test system: TK-10 renal
PC-3 prostate = test system: PC-3 prostate
OVCAR-4 ovarian = test system: OVCAR-4 ovarian
OVCAR-5 ovarian = test system: OVCAR-5 ovarian
SN12C renal = test system: SN12C renal
HOP-62 NSCLC = test system: HOP-62 NSCLC
NCI-H460 NSCLC = test system: NCI-H460 NSCLC
HL-60(TB) leukemia = test system: HL-60(TB) leukemia
MDA-MB-435 melanoma = test system: MDA-MB-435 melanoma
NCI-H23 lung = test system: NCI-H23 lung
SK-MEL-28 melanoma = test system: SK-MEL-28 melanoma
KM12 colon = test system: KM12 colon
HT29 colon = test system: HT29 colon
SW-620 colon = test system: SW-620 colon
SK-MEL-5 melanoma = test system: SK-MEL-5 melanoma
T-47D breast = test system: T-47D breast
MALME-3M melanoma = test system: MALME-3M melanoma
EKVX NSCLC = test system: EKVX NSCLC
UO-31 renal = test system: UO-31 renal
BT-549 breast = test system: BT-549 breast
UACC-62 melanoma = test system: UACC-62 melanoma
HS 578T breast = test system: HS 578T breast
OVCAR-8 ovarian = test system: OVCAR-8 ovarian
RXF 393 renal = test system: RXF 393 renal
IGROV1 ovarian = test system: IGROV1 ovarian
HCT-15 colon = test system: HCT-15 colon
SF-295 CNS = test system: SF-295 CNS
SR leukemia = test system: SR leukemia
HCC-2998 colon = test system: HCC-2998 colon
MCF7 breast = test system: MCF7 breast
ACHN renal = test system: ACHN renal
MDA-MB-468 breast = test system: MDA-MB-468 breast
K-562 leukemia = test system: K-562 leukemia
OVCAR-3 ovarian = test system: OVCAR-3 ovarian
SNB-75 CNS = test system: SNB-75 CNS
HOP-92 NSCLC = test system: HOP-92 NSCLC
SF-539 CNS = test system: SF-539 CNS
HCT-116 colon = test system: HCT-116 colon
RPMI-8226 leukemia = test system: RPMI-8226 leukemia

CNC(=O)c1cc(Oc2ccc(NC(=O)Nc3ccc(Cl)c(C(F)(F)F)c3)cc2)ccn1
GI50 (SNB-19 CNS): 3.33 µM
TGI (SNB-19 CNS): 8.1 µM
GI50 (MDA-MB-231 breast): 1.82 µM
TGI (MDA-MB-231 breast): 3.47 µM
GI50 (DU-145 prostate): 2.69 µM
TGI (DU-145 prostate): 6.57 µM
GI50 (A498 renal): 2.37 µM
TGI (A498 renal): 4.74 µM
GI50 (SF-268 CNS): 2.22 µM
TGI (SF-268 CNS): 4.71 µM
GI50 (MOLT-4 leukemia): 1.66 µM
TGI (MOLT-4 leukemia): 3.06 µM
GI50 (NCI-H226 lung): 1.46 µM
TGI (NCI-H226 lung): 3.28 µM
GI50 (A549 NSCLC): 2.95 µM
TGI (A549 NSCLC): 8.89 µM
GI50 (TK-10 renal): 5.09 µM
TGI (TK-10 renal): 17.7 µM
GI50 (PC-3 prostate): 2.71 µM
TGI (PC-3 prostate): 5.91 µM
GI50 (OVCAR-4 ovarian): 3.59 µM
TGI (OVCAR-4 ovarian): 6.84 µM
GI50 (OVCAR-5 ovarian): 2.69 µM
TGI (OVCAR-5 ovarian): 6.59 µM
GI50 (SN12C renal): 2.47 µM
TGI (SN12C renal): 5.66 µM
GI50 (HOP-62 NSCLC): 1.84 µM
TGI (HOP-62 NSCLC): 3.42 µM
GI50 (NCI-H460 NSCLC): 2.1 µM
TGI (NCI-H460 NSCLC): 4.25 µM
GI50 (HL-60(TB) leukemia): 0.892 µM
TGI (HL-60(TB) leukemia): 2.04 µM
GI50 (MDA-MB-435 melanoma): 2.57 µM
TGI (MDA-MB-435 melanoma): 4.98 µM
GI50 (NCI-H23 lung): 1.56 µM
TGI (NCI-H23 lung): 3.65 µM
GI50 (SK-MEL-28 melanoma): 2.15 µM
TGI (SK-MEL-28 melanoma): 4.34 µM
GI50 (KM12 colon): 0.413 µM
TGI (KM12 colon): 2.32 µM
GI50 (HT29 colon): 2.35 µM
TGI (HT29 colon): 5.96 µM
GI50 (SW-620 colon): 2.17 µM
TGI (SW-620 colon): 4.54 µM
GI50 (SK-MEL-5 melanoma): 0.842 µM
TGI (SK-MEL-5 melanoma): 2.44 µM
GI50 (T-47D breast): 1.94 µM
TGI (T-47D breast): 5.95 µM
GI50 (MALME-3M melanoma): 2.01 µM
TGI (MALME-3M melanoma): 4.12 µM
GI50 (EKVX NSCLC): 2.9 µM
TGI (EKVX NSCLC): 6.8 µM
GI50 (UO-31 renal): 0.748 µM
TGI (UO-31 renal): 1.44 µM
GI50 (BT-549 breast): 2.29 µM
TGI (BT-549 breast): 4.04 µM
GI50 (UACC-62 melanoma): 2.08 µM
TGI (UACC-62 melanoma): 4.06 µM
GI50 (HS 578T breast): 1.78 µM
TGI (HS 578T breast): 3.69 µM
GI50 (OVCAR-8 ovarian): 2.09 µM
TGI (OVCAR-8 ovarian): 4.24 µM
GI50 (RXF 393 renal): 2.2 µM
TGI (RXF 393 renal): 4.43 µM
GI50 (IGROV1 ovarian): 2.46 µM
TGI (IGROV1 ovarian): 5.91 µM
GI50 (HCT-15 colon): 1.92 µM
TGI (HCT-15 colon): 4.03 µM
GI50 (SF-295 CNS): 2.07 µM
TGI (SF-295 CNS): 4.2 µM
GI50 (SR leukemia): 2.1 µM
TGI (SR leukemia): 3.55 µM
GI50 (HCC-2998 colon): 2.13 µM
TGI (HCC-2998 colon): 3.86 µM
GI50 (MCF7 breast): 2.14 µM
TGI (MCF7 breast): 5 µM
GI50 (ACHN renal): 2.71 µM
TGI (ACHN renal): 6.37 µM
GI50 (MDA-MB-468 breast): 1.5 µM
TGI (MDA-MB-468 breast): 3.35 µM
GI50 (K-562 leukemia): 1.26 µM
TGI (K-562 leukemia): 2.55 µM
GI50 (OVCAR-3 ovarian): 2.28 µM
TGI (OVCAR-3 ovarian): 4.38 µM
GI50 (SNB-75 CNS): 3.21 µM
TGI (SNB-75 CNS): 5.92 µM
GI50 (HOP-92 NSCLC): 3 µM
TGI (HOP-92 NSCLC): 7.6 µM
GI50 (SF-539 CNS): 1.69 µM
TGI (SF-539 CNS): 3.54 µM
GI50 (HCT-116 colon): 1.65 µM
TGI (HCT-116 colon): 4.14 µM
GI50 (RPMI-8226 leukemia): 1.48 µM
TGI (RPMI-8226 leukemia): 2.82 µM
